Source: patent US6191152A, “2-(1,2,4-triazole-1-yl)-1,3,4-thiadiazole derivatives having an effect on the C.N.S. and the heart” (EGIS Gyogyszergyar Rt., priority 1997, dated 2001)
Counter-ions that a name gives are not always drawn.

Experiments:
[1] = test system: isolated guinea-pig papillary muscle; assay: Effective refractory period (ERP) prolonging effect in isolated guinea-pig right ventricular papillary muscle, in vitro; parameters: species or system guinea-pig (male); settings: for ERP change at 10^-4 M / ERP change at 10^-5 M: 30 minutes incubation, mean of at least four preparations
Description: 2. Measurement of Effective Refracter Period in Guinea-pig Right Ventricular Papillary Muscle, in Vitro.
Effective refracter period (ERP) is regarded to be the shortest time interval between two identical electrical stimuli when both can evoke a twitch in the papillary muscle. A second stimulus applied earlier than the ERP is not effective. Compounds prolonging ERP can have antiarrhythmic effect. This method is useful primarily for testing antiarrhythmic agents belonging to class III according to the Vaughan Williams classification /Bexton, R. S. and Camm. A., J. Pharmacol. Ther., 17, 315 (1982)/.
Experiments were performed in a Schuler-type organ bath system having 4 channels. Male guinea-pigs weighing 450 to 750 g were killed by a blow on the head and ensanguinated. The heart was rapidly excised and papillary muscles of appropriate size (lower than 1 mm in diameter) were dissected from the right ventricle. The preparations were vertically mounted in 20 ml organ chambers containing Krebs solution bubbled with carbogen (consisting of 95% of O2 and 5% of CO2) and maintained at 35° C. The upper end of the muscles was connected with cotton threads to force-displacement transducers coupled to a recorder for measuring isometric tension via DC-bridge amplifiers. The lower end of the papillary muscles was pinned to the organ chamber with a silver hook that was also used as a stimulating electrode. The other electrode was immersed into the organ bath and had no direct contact with the preparation. The composition of the Krebs solution was the following (in mm): NaCl 118, KCl 4.8, NaHCO3 27.2, glucose 11.1, MgSO4 1.2, KH2 PO4 1, CaCl2 2.6, pH=7.4.
The preparations were equilibrated for 120 minutes under a resting tension of 1 g. During equilibration they were electrically stimulated at a rate of 2 Hz with 1 msec rectangular pulses that were above the diastolic threshold voltage by 10%. ERP was determined using a standard extrastimulus technique. Extrastimuli (S2) were interjected between the normal stimuli (S1) in such a way that the S1 -S2 interval was initially below the refracter period of the tissue. The S1 -S2 interval was then widened by increments of 1 msec until the extrastimulus (S2) evoked twitch of the papillary muscle. The force of the twitch caused by S2 is larger than those caused by normal (S1) stimuli (postextrasystolic potentiation). The equipment measured the shortest S1 -S2 interval at which the extrastimulus evoked a twitch that was larger than the force of control twitches by 25%. This interval is equivalent with the ERP.
The experimental protocol was as follows:
Two control ERP measurements were performed 20 minutes apart, then appropriate amount of the test substance was added to produce 10^-4 M concentration in the bathing solution. After 30 minutes incubation with the test substance, two ERP measurements were performed 30 minutes apart.
When the test substance increased ERP at 10^-4 M by 40 msec or more, its effect on ERP was tested also at 10^-5 M.
The effect of the test substances was characterized by the difference between the first treated and the second control measurements. Individual data obtained from four different preparations, at least, were averaged. The reference substance used was sotalol i.e. N-[4-/1-hydroxy-2-(1-methylethylamino)ethyl/plenyl]methane sulfonamide.

[2] = test system: isolated Langendorff rat hearts; assay: Cardioprotective effect (time to contracture, TTC) in globally ischemic isolated Langendorff rat hearts; parameters: species or system rat (male Wistar); settings: for TTC change vs vehicle (%) at 10 µM / TTC change vs vehicle (%) at 1 µM: Rattus norvegicus, compared to the vehicle treated group; for TTC change vs vehicle (%) at 10 µM: 10^-5 M; for TTC change vs vehicle (%) at 1 µM: 10^-6 M
Description: 3. Measurement of Cardioprotective Effect in Ischemic rat Heart (Langendorff) Preparation
If the blood supply to a part of the myocardium is interrupted (e.g. during myocardial infarction), then the intracellular calcium concentration starts to rise and gradually attains pathophysiological levels. Myocardial contraction is regulated by calcium, therefore, high intracellular calcium concentration results in contracture of the myocardium. In isolated rat hearts, contracture develops in about 10 minutes after starting global ischemia, and this period is called time to contracture (TTC). Any substance which can inhibit the rise of intracellular calcium concentration and the development of contracture caused by high calcium concentration during ischemia protects the myocardium from impairment i.e. it has cardioprotective effect. Under experimental conditions,the cardioprotective effect of drugs is shown by their ability to prolong TTC. The cardioprotective effect of the compounds of the invention was examined by measuring TTC in globally ischemic Langendorff rat hearts/Longman, S. D. and Hamilton, T. C., Medicinal Research Reviews, 12, 73-148 (1992)/.
Male Wistar rats weighing 300 to 350 g were injected with 2500 IU (0.5 ml) of heparin i.p. and 10 minutes later they were anaesthetized with sodium pentobarbital/5-ethyl-5-(1-methylbutyl)-2,4,6(1H,3H,5H)-pyrimidinetrione sodium salt/in a dose of 60 mg/kg i.p. The heart was quickly excised and connected to a Langendorff apparatus via the aorta. The hearts were perfused at a constant perfusion pressure (60 mmHg) and temperature (37° C.) with a modified Krebs-Henseleit solution gassed with 95% of O2 and 5% of CO2. The composition of the modified Krebs-Henseleit solution was the following (in mM): NaCl 118, KCl 4.7, CaCl2 2.5, NaHCO3 24.88, KH2 PO4 1.18, MgSO4 1.6, EDTA 0.5 and glucose 11. Partial O2 and CO2 pressures and also pH were measured and maintained within normal limits (pO2 ==64000-77000 Pa, pCO2 =3800-4500 Pa, pH=7.3-7.45). A hole was cut in the wall of the left atrium and a water-filled plastic balloon attached to a metal cannula was then inserted into the left ventricle via the left atrium for measuring left ventricular pressure. End diastolic pressure was set to about 645 Pa, and adjusted for during the equilibration period but not later.
After a 20 minutes equilibration period, the hearts were perfused for 10 minutes with the test substance at 10^-5 or 10^-6 concentration or with the vehicle (0.04% of dimethyl sulfoxide). Global ischemia was initiated by completely shutting off the perfusate flow and carbogenization for 25 minutes. During ischemia, the time period from the beginning of ischemia until 645 Pa increase in left ventricular end diastolic pressure was measured (TTC).
Three experiments were performed with the test substances at each concentration and parameters of 3 additional vehicle treated hearts were measured along with the test substance.
Individual TTC values were averaged and the effect of the test substances was expressed as a percentage change compared to the vehicle treated group. Compounds that prolong TTC are cardioprotective. As a reference substance, lemakalim i.e. (3S)-trans-3,4-dihydro-3-hydroxy-2,2-dimethyl-4-(2-oxo-1-pyrrolidinyl)-2H- 1-benzpyrane-6-carbonitrile was used.

[3] = test system: isolated rat thoracic aorta; assay: Vascular relaxing effect in potassium chloride (20 mM KCl) contracted isolated rat thoracic aorta; parameters: species or system rat (male SPRD); settings: for IC50: Rattus norvegicus, 20 mM KCl contracted strips, 37° C., read-out: IC50 (vascular relaxation in isolated rat thoracic aorta)
Experimental: 1. Measurement of Vascular Relaxing Effect in Potassium Chloride Contracted Isolated rat Thoracic Aorta
Experiments were performed in thoracic aortas obtained from male SPRD rats weighing 250 to 300 g. Thoracic aortas excised from rats killed by decapitation and ensanguination were cleaned of fat and connective tissue, then were immediately placed in carbogenized TYRODE solution. The composition of the normal TYRODE solution was the following (in mM): NaCl 114.7, KCl 3.7, CaCl2 3.6, MgCl2 0.49, NaHCO3 19.9, NaH2 PO4 0.32, glucose 5.1.
Two mm wide and 20 to 25 mm long strips were cut from the aortas along a helical line at 45° angle. Aortic strips were mounted vertically between two cotton threads in 10 ml organ chambers, the lower threads were attached to the organ chambers and the upper threads were connected to isometric force transducers. The strips were incubated under 1 g resting tension at 37° C. for 120 minutes, then resting vascular tone was recorded. Then the strips were contracted with a TYRODE solution containing 20 mM KCl. The composition of the high potassium TYRODE solution was the following (in mM): NaCl 94.7, KCl 20, CaCl2 3.6, MgCl2 0.49, NaHCO3 19.9, NaH2 PO4 0.32, glucose 5.1.
When stable vascular tone developed, increasing doses of the test substance were added to the organ bath. The effects of each test substance were measured at least in 3 tissue preparations obtained from different animals. Decreases in vascular tension caused by the test substances were expressed as percentage changes and IC50 for each tissue preparation was determined by sigmoid (in few casses linear) curve fitting.
For comparison, cromakalim i.e. (±)-trans-3,4-dihydro-3-hydroxy-2,2-dimethyl-4-(2-oxo-1-pyrrolidinyl)-2H-1-benzopyrane-6-carbonitrile was used.

Structure (SMILES): CN1CCN(c2nc(N)n(-c3nnc(-c4c(Cl)cccc4Cl)s3)n2)CC1 [Example 10, 2-/5-Amino-3-(4-methylpiperazino)-1H-1,2,4-triazole-1-yl/ -5-(2,6-dichlorophenyl)-1,3,4-thiadiazole hydrochloride monohydrate]
- ERP change at 10^-4 M [1]: 120 msec
- ERP change at 10^-5 M [1]: 32 msec
- TTC change vs vehicle (%) at 10 µM [2]: 74%
- TTC change vs vehicle (%) at 1 µM [2]: 47%
- IC50 [3]: > 10 µM

Structure (SMILES): CSc1nc(N)n(-c2nnc(-c3cccc(OCCCN(C)C)c3)s2)n1 [Example 26, 2-(5-Amino-3-methylthio-1H-1,2,4-triazole-1-yl)-5-/ 3-(3-dimethylaminopropoxy)phenyl/-1,3,4-thiadiazole hydrochloride]
- ERP prolongation (in words) [1]: prolonged not only TTC but ERP as well
- ERP change at 10^-4 M [1]: 148 msec
- ERP change at 10^-5 M [1]: 21 msec
- TTC prolongation (in words) [2]: prolonged not only TTC but ERP as well
- TTC change vs vehicle (%) at 10 µM [2]: 41%
- TTC change vs vehicle (%) at 1 µM [2]: 33%
- IC50 [3]: > 10 µM

Structure (SMILES): CSc1nc(N)n(-c2nnc(-c3ccccc3OCCCN(C(C)C)C(C)C)s2)n1 [Example 45, 2-(5-Amino-3-methylthio-1H-1,2,4-triazole-1-yl)-5-[2-/ 3-di(2-methylethyl)aminopropoxy/phenyl]-1,3,4-thiadiazole]
- TTC change vs vehicle (%) at 10 µM [2]: 31%
- TTC change vs vehicle (%) at 1 µM [2]: 30%
- IC50 [3]: > 1 µM

Structure (SMILES): CCN(CCO)CCOc1ccccc1-c1nnc(-n2nc(N3CCCCC3)nc2N)s1 [Example 90, 2-(5-Amino-3-piperidino-1H-1,2,4-triazole-1-yl)-5-{2-[2-/ 2-ethyl-2-(2-hydroxyethyl)amino/ethoxy]phenyl}-1,3,4-thiadiazole]
- TTC change vs vehicle (%) at 10 µM [2]: 36%
- TTC change vs vehicle (%) at 1 µM [2]: 19%
- IC50 [3]: > 10 µM

Structure (SMILES): Nc1nc(N2CCCCC2)nn1-c1nnc(-c2ccccc2OCCNCCN2CCOCC2)s1 [Example 91, 2-(5-Amino-3-piperidino-1H-1,2,4-triazole-1-yl)-5-[2-/ 2-(2-morpholinoethyl)amino/ethoxy]phenyl-1,3,4-thiadiazole]
- TTC change vs vehicle (%) at 1 µM [2]: 58%
- IC50 [3]: > 1 µM

Structure (SMILES): CC1(C)Oc2ccc(C#N)cc2[C@@H](N2CCCC2=O)[C@@H]1O [lemakalim, (3S)-trans-3,4-dihydro-3-hydroxy-2,2-dimethyl-4-(2-oxo-1-pyrrolidinyl)-2H-1-benzpyrane-6-carbonitrile, reference compound]
- TTC prolongation (in words) [2]: prolonged not only TTC
- TTC change vs vehicle (%) at 10 µM [2]: 55%
- TTC change vs vehicle (%) at 1 µM [2]: 20%
- vascular relaxation of isolated rat thoracic aorta (in words) [3]: considerably relaxed isolated rat thoracic aorta
